In patent US9783536B2, “Nitrogen-containing heterocyclic compound or salt thereof” (FUJIFILM Corporation, priority 2013, dated 2017):
Where a name gives a salt, the structure may show the parent alone. Read-outs that look alike come from different tables or passages of the source.

Key:
Assay type in all cases: biochemical
human PI3Kα protein = target: T1, human PI3Kα protein (Homo sapiens, UniProt P42336); assay: PI3Kα enzyme assay (ADP-Glo); settings: read-out: PI3Kα enzyme inhibitory activity
T1 construct: purchased Carna Biosciences, Inc; host or cells: baculovirus expression system
T1 sequence (P42336 whole entry): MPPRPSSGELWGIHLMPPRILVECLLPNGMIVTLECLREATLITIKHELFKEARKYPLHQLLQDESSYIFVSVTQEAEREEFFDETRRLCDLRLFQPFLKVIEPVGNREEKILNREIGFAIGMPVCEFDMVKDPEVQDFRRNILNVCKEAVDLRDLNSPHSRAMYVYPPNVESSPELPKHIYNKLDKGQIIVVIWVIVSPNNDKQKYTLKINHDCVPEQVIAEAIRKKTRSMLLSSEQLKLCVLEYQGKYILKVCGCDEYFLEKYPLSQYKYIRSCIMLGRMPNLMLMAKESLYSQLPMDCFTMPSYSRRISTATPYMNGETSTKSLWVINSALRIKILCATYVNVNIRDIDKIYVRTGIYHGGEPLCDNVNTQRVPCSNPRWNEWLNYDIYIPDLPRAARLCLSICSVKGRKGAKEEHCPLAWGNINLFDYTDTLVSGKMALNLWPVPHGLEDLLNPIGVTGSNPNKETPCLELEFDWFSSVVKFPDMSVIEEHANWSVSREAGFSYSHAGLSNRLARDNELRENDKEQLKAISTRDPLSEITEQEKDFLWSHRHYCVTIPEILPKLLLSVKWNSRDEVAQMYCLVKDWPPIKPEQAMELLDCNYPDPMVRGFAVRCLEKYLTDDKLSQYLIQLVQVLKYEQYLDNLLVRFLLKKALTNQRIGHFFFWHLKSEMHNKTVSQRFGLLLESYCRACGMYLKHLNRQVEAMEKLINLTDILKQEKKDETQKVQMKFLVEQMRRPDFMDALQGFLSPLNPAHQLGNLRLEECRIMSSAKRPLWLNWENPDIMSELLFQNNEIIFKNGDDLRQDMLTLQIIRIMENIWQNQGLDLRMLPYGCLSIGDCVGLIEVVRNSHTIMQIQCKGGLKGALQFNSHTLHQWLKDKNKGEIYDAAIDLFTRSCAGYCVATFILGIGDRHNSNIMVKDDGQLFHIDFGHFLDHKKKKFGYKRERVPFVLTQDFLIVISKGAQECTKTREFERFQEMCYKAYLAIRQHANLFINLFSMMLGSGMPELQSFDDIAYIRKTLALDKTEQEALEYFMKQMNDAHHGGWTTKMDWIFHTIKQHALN
T1 sequence (P27986 whole entry partner): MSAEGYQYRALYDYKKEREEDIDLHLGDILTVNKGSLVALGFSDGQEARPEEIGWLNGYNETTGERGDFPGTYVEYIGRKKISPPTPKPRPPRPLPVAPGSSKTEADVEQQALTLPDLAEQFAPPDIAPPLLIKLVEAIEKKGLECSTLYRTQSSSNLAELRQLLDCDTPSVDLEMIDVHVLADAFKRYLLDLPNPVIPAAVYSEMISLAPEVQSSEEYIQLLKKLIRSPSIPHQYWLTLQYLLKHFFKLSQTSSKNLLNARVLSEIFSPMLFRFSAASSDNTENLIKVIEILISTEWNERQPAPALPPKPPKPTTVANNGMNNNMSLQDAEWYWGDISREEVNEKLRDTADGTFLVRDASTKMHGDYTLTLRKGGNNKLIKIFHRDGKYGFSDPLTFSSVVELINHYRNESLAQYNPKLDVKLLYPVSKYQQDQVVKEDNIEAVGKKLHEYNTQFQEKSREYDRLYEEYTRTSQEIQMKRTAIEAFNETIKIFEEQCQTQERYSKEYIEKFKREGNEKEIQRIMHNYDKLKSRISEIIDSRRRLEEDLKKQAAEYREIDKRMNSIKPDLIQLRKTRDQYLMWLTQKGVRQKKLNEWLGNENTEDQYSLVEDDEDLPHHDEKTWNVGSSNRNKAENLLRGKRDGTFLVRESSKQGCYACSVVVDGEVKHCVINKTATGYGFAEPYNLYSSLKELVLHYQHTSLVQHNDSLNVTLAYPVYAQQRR
Procedure, shortened: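 Biotinylated human PI3Kα (baculovirus-expressed, 4.5 nmol/L) pre-incubated 15 min with compound in Tris-HCl pH 7.5, MgCl2, BSA; reaction 60 min at 25° C with 50 μmol/L PIP2 and 100 μmol/L ATP final. ADP quantified by ADP-Glo luminescence; IC50 calculated.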

[1] = target: T2, GST fusion human ERK2 protein (Homo sapiens, UniProt P28482); assay: ERK2 enzyme assay (2); settings: read-out: ERK2 enzyme inhibitory activity (2)
T2 construct: purchased Carna Biosciences, Inc; host or cells: E. coli expression system
T2 sequence (P28482 whole entry, the tested form may be a part): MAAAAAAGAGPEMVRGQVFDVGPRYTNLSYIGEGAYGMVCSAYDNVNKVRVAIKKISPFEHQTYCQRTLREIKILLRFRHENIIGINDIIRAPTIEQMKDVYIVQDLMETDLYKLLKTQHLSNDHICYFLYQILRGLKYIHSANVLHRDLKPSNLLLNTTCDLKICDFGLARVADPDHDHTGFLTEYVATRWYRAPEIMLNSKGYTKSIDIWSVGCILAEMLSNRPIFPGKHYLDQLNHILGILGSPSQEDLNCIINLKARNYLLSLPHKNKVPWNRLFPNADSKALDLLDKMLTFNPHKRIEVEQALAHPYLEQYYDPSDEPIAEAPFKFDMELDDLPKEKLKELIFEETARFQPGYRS
Procedure, shortened: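 IC50 values come from mobility-shift measurement of phosphorylated versus unphosphorylated 5-FAM peptide substrate after EDTA quench. Beforehand, compound and 1.25 nmol/L E. coli-expressed GST–human ERK2 stood 15 min at room temperature (pH 7.5), then 1 mmol/L ATP and 4.25 μmol/L substrate (final) were added for 120 min at 25 °C.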

[2] = target: T2, GST fusion human ERK2 protein; assay: ERK2 enzyme assay (1); settings: read-out: ERK2 enzyme inhibitory activity (1)
Procedure, shortened: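 IC50 derived from the proportion of phosphorylated 5-FAM peptide, separated from unphosphorylated peptide by microfluidic mobility shift. Compound was first preincubated 15 min at room temperature with 2.5 nmol/L kinase at pH 7.5, then 43.1 μmol/L ATP plus 4.25 μmol/L substrate reacted 120 min at 25 °C.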

[3] = 4.5 nmol/L PI3Kα, PIP2 50 μmol/L, ATP 100 μmol/L
[4] = 2.5 nmol/L ERK2, ATP 43.1 μmol/L

| Structure (SMILES) | IC50 (human PI3Kα protein; [3]) [nM] | IC50 ([1]; 1.25 nmol/L ERK2, ATP 1 mmol/L) [nM] | IC50 [2, 4] [nM] | IC50 (human PI3Kα protein) [nM] | IC50 ([1]; ERK2 enzyme assay (2)) [nM] | IC50 ([2]; ERK2 enzyme assay (1)) [nM] |
| --- | --- | --- | --- | --- | --- | --- |
| CCOc1nn(C)cc1-c1cnc2ccc(Nc3nnc(C(C)C)s3)nc2c1 [Example 0150] | < 1000 | 1000 to 10000 | < 1000 | – | – | – |
| CC(C)c1nnc(Nc2ccc3ncc(-c4cnn(CCCN5CCOCC5)c4)cc3n2)s1 [Example 0118] | < 1000 | < 1000 | < 1000 | – | – | – |
| COCCCn1cc(-c2cnc3ccc(Nc4nnc(C5CCCC5)s4)nc3c2)cn1 [Example 0339, 5-cyclopentyl-N-(7-(1-(3-methoxypropyl)-1H-pyrazol-4-yl)-1,5-naphthyridin-2-yl)-1,3,4-thiadiazole-2-amine] | – | – | – | < 1000 | < 1000 | < 1000 |
| c1ncc(OCCCN2CCOCC2)cc1Nc1cnc2ccc(Nc3nnc(C4CCCC4)s3)nc2c1 [Example 0084] | < 1000 | < 1000 | < 1000 | – | – | – |
| CC(=O)N1CCCC1c1nnc(Nc2ccc3ncc(-c4cnn(C)c4)cc3n2)s1 (stereo not drawn) [Example 0248, 1-(2-(5-((7-(1-methyl-1H-pyrazol-4-yl)-1,5-naphthyridin-2-yl)amino)-1,3,4-thiadiazol-2-yl)pyrrolidin-1-yl)ethanone] | – | – | – | 1000 to 10000 | < 1000 | < 1000 |
| CCCc1nnc(Nc2ccc3ncc(-c4cnn(C)c4)cc3n2)s1 [Example 0169, N-(7-(1-methyl-1H-pyrazol-4-yl)-1,5-naphthyridin-2-yl)-5-propyl-1,3,4-thiadiazole-2-amine] | – | < 1000 | < 1000 | – | – | – |
| CNS(=O)(=O)c1nnc(Nc2ccc3ncc(-c4cnn(C)c4)cc3n2)s1 [Example 0189, methyl ((5-((7-(1-methyl-1H-pyrazol-4-yl)-1,5-naphthyridin-2-yl)amino)-1,3,4-thiadiazol-2-yl)sulfonyl)amide sodium salt] | < 1000 | < 1000 | < 1000 | – | – | – |
| CC(C)c1nnc(Nc2ccc3ncc(-c4cn(C)nc4-c4ccccc4)cc3n2)s1 [Example 0124, 5-isopropyl-N-(7-(1-methyl-3-phenyl-1H-pyrazol-4-yl)-1,5-naphthyridin-2-yl)-1,3,4-thiadiazole-2-amine] | < 1000 | 1000 to 10000 | < 1000 | – | – | – |
| OC(CN1CCCC1)Cn1cc(-c2cnc3ccc(Nc4nnc(C5CCCC5)s4)nc3c2)cn1 (stereo not drawn) [Example 0356, 1-(4-(6-((5-Cyclopentyl-1,3,4-thiadiazol-2-yl)amino)-1,5-naphthyridin-3-yl)-1H-pyrazol-1-yl)-3-(pyrrolidin-1-yl)propan-2-ol] | – | – | – | < 1000 | < 1000 | < 1000 |
| Cn1cc(-c2cnc3ccc(Nc4nnc(C5CCCC5)s4)nc3c2)c(-c2ccccc2)n1 [Example 0129, 5-cyclopentyl-N-(7-(1-methyl-3-phenyl-1H-pyrazol-4-yl)-1,5-naphthyridin-2-yl)-1,3,4-thiadiazole-2-amine] | < 1000 | 1000 to 10000 | < 1000 | – | – | – |
| CC(C)c1nnc(Nc2ccc3ncc(-c4cn(C)nc4-c4cccnc4)cc3n2)s1 [Example 0134] | < 1000 | < 1000 | < 1000 | – | – | – |
| CCOc1nc2ccc(Nc3nnc(C4CCCC4)s3)nc2cc1-c1cnn(C)c1 [Example 0357, 5-Cyclopentyl-N-(6-ethoxy-7-(1-methyl-1H-pyrazol-4-yl)-1,5-naphthyridin-2-yl)-1,3,4-thiadiazole-2-amine] | – | – | – | – | 1000 to 10000 | 1000 to 10000 |
| Cn1cc(-c2cnc3ccc(Nc4nnc(C5CCCC5)s4)nc3c2)c2cccnc21 [Example 0113] | – | < 1000 | < 1000 | – | – | – |
| c1cnc2[nH]cc(-c3cnc4ccc(Nc5nnc(C6CCCC6)s5)nc4c3)c2c1 [Example 0111] | – | < 1000 | < 1000 | – | – | – |
| Cn1cc(-c2cnc3ccc(Nc4nnc(C5CCCCC5)s4)nc3c2)cn1 [Example 0217, 5-Cyclohexyl-N-(7-(1-methyl-1H-pyrazol-4-yl)-1,5-naphthyridin-2-yl)-1,3,4-thiadiazole-2-amine] | – | – | – | – | < 1000 | < 1000 |
| Cn1cc(-c2cc3nc(Nc4nnc(C5CCCC5)s4)ccc3nc2Cl)cn1 [Example 0349, N-(6-chloro-7-(1-methyl-1H-pyrazol-4-yl)-1,5-naphthyridin-2-yl)-5-cyclopentyl-1,3,4-thiadiazole-2-amine] | – | – | – | – | 1000 to 10000 | < 1000 |
| CC(C)c1cncc(Nc2cnc3ccc(Nc4nnc(C5CCCC5)s4)nc3c2)c1 [Example 0099] | < 1000 | – | < 1000 | – | – | – |
| CC(C)c1cnnc(Nc2ccc3ncc(-c4cnn(Cc5ccncc5)c4)cc3n2)c1 [Example 0381] | – | – | – | < 1000 | – | < 1000 |
| CS(=O)(=O)N1CCC(Nc2cnc3ccc(Nc4nnc(C5CCCC5)s4)nc3c2)CC1 [Example 0098] | < 1000 | – | < 1000 | – | – | – |

| Structure (SMILES) | IC50 (human PI3Kα protein; [3]) [nM] | IC50 ([1]; 1.25 nmol/L ERK2, ATP 1 mmol/L) [nM] | IC50 [2, 4] [nM] | IC50 (human PI3Kα protein) [nM] | IC50 ([1]; ERK2 enzyme assay (2)) [nM] | IC50 ([2]; ERK2 enzyme assay (1)) [nM] |
| --- | --- | --- | --- | --- | --- | --- |
| c1n[nH]cc1Nc1cnc2ccc(Nc3nnc(C4CCCO4)s3)nc2c1 (stereo not drawn) [Example 0228] | – | – | – | < 1000 | – | < 1000 |
| c1cnnc(Nc2cnc3ccc(Nc4nnc(C5CCCC5)s4)nc3c2)c1 [Example 0224, N^2-(5-cyclopentyl-1,3,4-thiadiazol-2-yl)-N^7-(pyridazin-3-yl)-1,5-naphthyridine-2,7-diamine] | – | – | – | < 1000 | – | < 1000 |
| C1=C(c2cnc3ccc(Nc4nnc(C5CCCC5)s4)nc3c2)CCNC1 [Example 0330, 5-cyclopentyl-N-(7-(1,2,3,6-tetrahydropyridin-4-yl)-1,5-naphthyridin-2-yl)-1,3,4-thiadiazole-2-amine hydrochloride] | – | – | – | 1000 to 10000 | – | < 1000 |
| O=S(=O)(Nc1ccccc1)c1nnc(Nc2ccc3ncc(-c4cnn(CCN5CCOCC5)c4)cc3n2)s1 [Example 0188, 5-((7-(1-(2-morpholinoethyl)-1H-pyrazol-4-yl)-1,5-naphthyridin-2-yl)amino)-N-phenyl-1,3,4-thiadiazole-2-sulfonamide sodium salt] | < 1000 | – | < 1000 | – | – | – |
| c1nc2ccc(Nc3nnc(CN4CCOCC4)s3)nc2cc1-c1cnn(CCCN2CCCC2)c1 [Example 0255, 5-(morpholinomethyl)-N-(7-(1-(3-(pyrrolidin-1-yl)propyl)-1H-pyrazol-4-yl)-1,5-naphthyridin-2-yl)-1,3,4-thiadiazole-2-amine] | – | – | – | 1000 to 10000 | – | < 1000 |
| CC(C)c1nnc(Nc2ccc3ncc(-c4cnn(C)c4)nc3n2)s1 [Example 0010, 5-isopropyl-N-(3-(1-methyl-1H-pyrazol-4-yl)pyrido[2,3-b]pyrazine-6-yl)-1,3,4-thiadiazole-2-amineformate] | 1000 to 10000 | – | < 1000 | – | – | – |
| CC(C)c1nnc(Nc2ccc3nccc(Nc4ccccc4)c3n2)s1 [Example 0009] | 1000 to 10000 | – | 1000 to 10000 | – | – | – |
| CC(C)c1nnc(Nc2ccc3nccc(-c4ccnnc4)c3n2)s1 [Example 0283] | – | – | – | < 1000 | – | < 1000 |
| COc1ncccc1Nc1cnc2ccc(Nc3nnc(C4CCCC4)s3)nc2c1 [Example 0077] | 1000 to 10000 | – | 1000 to 10000 | – | – | – |
| Cc1nnc(Nc2ccc3ncc(Nc4cn[nH]c4)cc3n2)s1 [Example 0182] | 1000 to 10000 | – | < 1000 | – | – | – |
| CN(c1cnc2ccc(Nc3nnc(C4CCCC4)s3)nc2c1)c1cnn(C)c1 [Example 0195, N^2-(5-cyclopentyl-1,3,4-thiadiazol-2-yl)-N^7-methyl-N^7-(1-methyl-1H-pyrazol-4-yl)-1,5-naphthyridine-2,7-diamine] | 1000 to 10000 | – | < 1000 | – | – | – |
| c1cncc(Nc2cnc3ccc(Nc4nnc(C5CCCC5)s4)nc3c2)c1 [Example 0207] | – | – | – | < 1000 | – | < 1000 |
| CC(C)Oc1cncc(Nc2cnc3ccc(Nc4nnc(C5CCCC5)s4)nc3c2)c1 [Example 0100] | 1000 to 10000 | – | < 1000 | – | – | – |
| CC(=O)N1CCC(c2cnc3ccc(Nc4nnc(C5CCCC5)s4)nc3c2)CC1 [Example 0335, 1-(4-(6-((5-Cyclopentyl-1,3,4-thiadiazol-2-yl)amino)-1,5-naphthyridin-3-yl)piperidin-1-yl)ethanone] | – | – | – | 10000 to 50000 | – | < 1000 |
| Cn1cc(-c2cnc3ccc(Nc4ncc[nH]4)nc3c2)cn1 [Example 0030, N-(1H-imidazol-2-yl)-7-(1-methyl-1H-pyrazol-4-yl)-1,5-naphthyridine-2-amine] | < 1000 | – | < 1000 | – | – | – |
| O[C@@H]1CCN(c2cnc3ccc(Nc4nnc(C5CCCC5)s4)nc3c2)C1 [Example 0313] | – | – | – | 1000 to 10000 | – | < 1000 |
| c1ccc(-c2cnnc(Nc3ccc4ncc(-c5cnn(CCCN6CCCC6)c5)cc4n3)c2)cc1 [Example 0297, N-(5-phenylpyridazin-3-yl)-7-(1-(3-(pyrrolidin-1-yl)propyl)-1H-pyrazol-4-yl)-1,5-naphthyridine-2-amine] | – | – | – | < 1000 | – | < 1000 |
| CN(C)CCn1cc(-c2cnc3ccc(Nc4nnc(C5CCCC5)s4)nc3c2)cn1 [Example 0304, 5-Cyclopentyl-N-(7-(1-(2-(dimethylamino)ethyl)-1H-pyrazol-4-yl)-1,5-naphthyridin-2-yl)-1,3,4-thiadiazole-2-amine] | – | – | – | < 1000 | – | < 1000 |
